Experimental data reported in article PMC10746543, “Design principles for cyclin K molecular glue degraders” (Nature Chemical Biology, 2023).
Where “and” joins values, the source holds several entries; their conditions need not be identical. Equal entries are not always repeated.

Target: T1, CDK12–cyclin K and DDB1 (Homo sapiens, UniProt Q16531+Q9NYV4, K965R)
T1 construct: His6–CDK12 (a.a. 713–1,052); full-length or beta-propeller B domain deletion (ΔBPB: a.a. 396–705 deleted) constructs of His6–DDB1ΔBPB, StrepII–Avi–DDB1, or His6–Spy–DDB1; made in house; host or cells: Trichoplusia ni High Five insect cells (baculovirus)
T1 sequence (Q9NYV4 713-1052 K965R): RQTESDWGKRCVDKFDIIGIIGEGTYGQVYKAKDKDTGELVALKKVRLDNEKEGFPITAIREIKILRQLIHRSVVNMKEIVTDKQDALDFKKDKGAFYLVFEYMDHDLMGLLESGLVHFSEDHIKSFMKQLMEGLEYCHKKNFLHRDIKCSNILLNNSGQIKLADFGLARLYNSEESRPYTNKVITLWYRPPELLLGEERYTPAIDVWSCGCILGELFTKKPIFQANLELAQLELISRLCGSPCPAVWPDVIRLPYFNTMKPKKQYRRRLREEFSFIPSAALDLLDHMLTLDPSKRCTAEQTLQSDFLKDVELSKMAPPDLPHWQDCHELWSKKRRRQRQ
T1 sequence (O75909 1-267 partner): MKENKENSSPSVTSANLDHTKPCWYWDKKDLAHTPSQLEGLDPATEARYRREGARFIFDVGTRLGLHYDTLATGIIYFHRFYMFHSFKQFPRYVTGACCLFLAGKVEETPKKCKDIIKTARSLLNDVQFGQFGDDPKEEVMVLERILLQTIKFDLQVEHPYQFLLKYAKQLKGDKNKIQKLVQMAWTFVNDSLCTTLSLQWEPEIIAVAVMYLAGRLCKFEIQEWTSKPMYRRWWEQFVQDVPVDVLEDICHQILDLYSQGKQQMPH
T1 sequence (Q16531 whole entry): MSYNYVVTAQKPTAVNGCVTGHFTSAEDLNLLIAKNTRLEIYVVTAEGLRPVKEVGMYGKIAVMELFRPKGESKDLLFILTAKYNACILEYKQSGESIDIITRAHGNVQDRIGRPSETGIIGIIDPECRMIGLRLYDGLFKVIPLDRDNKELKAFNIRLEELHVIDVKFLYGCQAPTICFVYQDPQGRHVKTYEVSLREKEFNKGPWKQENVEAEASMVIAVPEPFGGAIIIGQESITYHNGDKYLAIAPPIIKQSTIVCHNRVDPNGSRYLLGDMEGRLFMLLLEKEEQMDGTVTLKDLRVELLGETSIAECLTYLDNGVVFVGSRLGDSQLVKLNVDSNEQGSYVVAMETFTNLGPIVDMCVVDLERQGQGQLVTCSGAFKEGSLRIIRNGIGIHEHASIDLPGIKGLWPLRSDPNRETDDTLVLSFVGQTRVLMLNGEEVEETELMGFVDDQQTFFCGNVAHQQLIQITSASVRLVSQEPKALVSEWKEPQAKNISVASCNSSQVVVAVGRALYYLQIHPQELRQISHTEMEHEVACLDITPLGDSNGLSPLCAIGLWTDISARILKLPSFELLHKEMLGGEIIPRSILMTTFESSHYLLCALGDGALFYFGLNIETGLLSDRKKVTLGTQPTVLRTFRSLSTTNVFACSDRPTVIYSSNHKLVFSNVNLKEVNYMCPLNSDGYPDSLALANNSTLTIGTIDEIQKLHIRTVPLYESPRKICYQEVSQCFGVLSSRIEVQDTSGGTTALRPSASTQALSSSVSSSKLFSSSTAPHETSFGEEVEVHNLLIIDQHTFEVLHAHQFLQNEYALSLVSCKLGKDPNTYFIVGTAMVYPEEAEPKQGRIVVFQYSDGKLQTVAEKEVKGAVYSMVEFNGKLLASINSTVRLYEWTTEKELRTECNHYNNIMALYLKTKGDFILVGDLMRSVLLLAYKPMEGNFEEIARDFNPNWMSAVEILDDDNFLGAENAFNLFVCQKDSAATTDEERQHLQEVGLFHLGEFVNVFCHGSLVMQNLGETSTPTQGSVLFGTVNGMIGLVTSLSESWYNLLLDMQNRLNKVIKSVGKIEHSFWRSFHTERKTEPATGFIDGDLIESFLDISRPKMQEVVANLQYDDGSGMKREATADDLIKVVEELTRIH
Experiment: TR-FRET ternary complex formation assay (compound titration)
Type: binding
Details: for TR-FRET signal at compound concentration: replicate titrations
In short: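 A time delay of 70 μs preceded acquisition, limiting background fluorescence; the ratio of emission at 520 versus 490 nm gave the TR-FRET value.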

[1] = compound concentration 0.468 nM
[2] = compound concentration 7.92001 nM
[3] = compound concentration 15.84 nM
[4] = compound concentration 30.96 nM
[5] = compound concentration 62.6401 nM
[6] = compound concentration 125.28 nM
[7] = compound concentration 244.8 nM
[8] = compound concentration 993.601 nM

CCC(CO)Nc1nc(NCc2ccc(-c3ccccn3)cc2)c2ncn(C(C)C)c2n1 (stereo not shown) [CR8, reference compound]
TR-FRET signal, individual replicate [1]: 0.3192 and 0.333 and 0.3266 and 0.1622 and 0.1822 and 0.1545 and 0.1541
TR-FRET signal at compound concentration 0.468 nM (compound concentration 0.468 nM, raw replicate titration data): 0.3192 and 0.333 and 0.3266 and 0.1622 and 0.1822 and 0.1545 and 0.1541 and 0.2195 and 0.2132 and 0.1986 and 0.2005 and 0.1618 and 0.1794 and 0.2366 and 0.2374 and 0.2769 and 0.2739 and 0.31
TR-FRET signal at compound concentration 0.468 nM (compound concentration 0.468 nM, raw titration data): 0.3192 and 0.333 and 0.3266 and 0.1622 and 0.1822 and 0.1545 and 0.1541 and 0.2195 and 0.2132 and 0.1986 and 0.2005 and 0.1618 and 0.1794 and 0.2366 and 0.2374 and 0.2769 and 0.2739 and 0.31
TR-FRET signal at compound concentration [1]: 0.3192 and 0.333 and 0.3266 and 0.1622 and 0.1822 and 0.1545 and 0.1541
TR-FRET signal, individual replicate (compound concentration 2.16 nM): 0.4573 and 0.4311 and 0.4305 and 0.2659 and 0.27 and 0.2373 and 0.2241
TR-FRET signal at compound concentration 2.16 nM (compound concentration 2.16 nM, raw replicate titration data): 0.4573 and 0.4311 and 0.4305 and 0.2659 and 0.27 and 0.2373 and 0.2241 and 0.3119 and 0.3007 and 0.2892 and 0.2693 and 0.2407 and 0.2691 and 0.3343 and 0.3434 and 0.3949 and 0.3941 and 0.4244
TR-FRET signal at compound concentration 2.16 nM (compound concentration 2.16 nM, raw titration data): 0.4573 and 0.4311 and 0.4305 and 0.2659 and 0.27 and 0.2373 and 0.2241 and 0.3119 and 0.3007 and 0.2892 and 0.2693 and 0.2407 and 0.2691 and 0.3343 and 0.3434 and 0.3949 and 0.3941 and 0.4244
TR-FRET signal at compound concentration (compound concentration 2.16 nM): 0.4573 and 0.4311 and 0.4305 and 0.2659 and 0.27 and 0.2373 and 0.2241
TR-FRET signal, individual replicate (compound concentration 3.6 nM): 0.7291 and 0.6022 and 0.6555 and 0.4637 and 0.4981 and 0.4299 and 0.4143 and 0.532
TR-FRET signal at compound concentration 3.6 nM (compound concentration 3.6 nM, raw replicate titration data): 0.7291 and 0.6022 and 0.6555 and 0.4637 and 0.4981 and 0.4299 and 0.4143 and 0.532 and 0.5274 and 0.5046 and 0.4937 and 0.4479 and 0.5082 and 0.5733 and 0.5902 and 0.6794 and 0.6674 and 0.7173
TR-FRET signal at compound concentration 3.6 nM (compound concentration 3.6 nM, raw titration data): 0.7291 and 0.6022 and 0.6555 and 0.4637 and 0.4981 and 0.4299 and 0.4143 and 0.532 and 0.5274 and 0.5046 and 0.4937 and 0.4479 and 0.5082 and 0.5733 and 0.5902 and 0.6794 and 0.6674 and 0.7173
TR-FRET signal at compound concentration (compound concentration 3.6 nM): 0.7291 and 0.6022 and 0.6555 and 0.4637 and 0.4981 and 0.4299 and 0.4143 and 0.532
TR-FRET signal, individual replicate [2]: 1.345 and 0.9894 and 0.9813 and 0.8825 and 0.9549 and 0.8747 and 0.8749 and 0.9605
TR-FRET signal at compound concentration 7.92001 nM (compound concentration 7.92001 nM, raw replicate titration data): 1.345 and 0.9894 and 0.9813 and 0.8825 and 0.9549 and 0.8747 and 0.8749 and 0.9605 and 0.982 and 0.9498 and 0.9487 and 0.89 and 1.021 and 1.066 and 1.149 and 1.341 and 1.311 and 1.1731
TR-FRET signal at compound concentration 7.92001 nM (compound concentration 7.92001 nM, raw titration data): 1.345 and 0.9894 and 0.9813 and 0.8825 and 0.9549 and 0.8747 and 0.8749 and 0.9605 and 0.982 and 0.9498 and 0.9487 and 0.89 and 1.021 and 1.066 and 1.149 and 1.341 and 1.311 and 1.1731
TR-FRET signal at compound concentration [2]: 1.345 and 0.9894 and 0.9813 and 0.8825 and 0.9549 and 0.8747 and 0.8749 and 0.9605
TR-FRET signal, individual replicate [3]: 2.359 and 1.808 and 1.67 and 1.71 and 1.978 and 1.839 and 1.833 and 1.762
TR-FRET signal at compound concentration 15.84 nM (compound concentration 15.84 nM, raw replicate titration data): 2.359 and 1.808 and 1.67 and 1.71 and 1.978 and 1.839 and 1.833 and 1.762 and 1.792 and 1.805 and 1.852 and 1.758 and 1.925 and 1.999 and 2.166 and 2.456 and 2.406 and 2.268
TR-FRET signal at compound concentration 15.84 nM (compound concentration 15.84 nM, raw titration data): 2.359 and 1.808 and 1.67 and 1.71 and 1.978 and 1.839 and 1.833 and 1.762 and 1.792 and 1.805 and 1.852 and 1.758 and 1.925 and 1.999 and 2.166 and 2.456 and 2.406 and 2.268
TR-FRET signal at compound concentration [3]: 2.359 and 1.808 and 1.67 and 1.71 and 1.978 and 1.839 and 1.833 and 1.762
TR-FRET signal, individual replicate [4]: 3.429 and 2.93 and 2.851 and 3.1006 and 3.279 and 3.156 and 3.142 and 2.862
TR-FRET signal at compound concentration 30.96 nM (compound concentration 30.96 nM, raw replicate titration data): 3.429 and 2.93 and 2.851 and 3.1006 and 3.279 and 3.156 and 3.142 and 2.862 and 2.958 and 2.99 and 2.943 and 2.896 and 3.197 and 3.095 and 3.319 and 3.517 and 3.418 and 3.349
TR-FRET signal at compound concentration 30.96 nM (compound concentration 30.96 nM, raw titration data): 3.429 and 2.93 and 2.851 and 3.1006 and 3.279 and 3.156 and 3.142 and 2.862 and 2.958 and 2.99 and 2.943 and 2.896 and 3.197 and 3.095 and 3.319 and 3.517 and 3.418 and 3.349
TR-FRET signal at compound concentration [4]: 3.429 and 2.93 and 2.851 and 3.1006 and 3.279 and 3.156 and 3.142 and 2.862
TR-FRET signal, individual replicate [5]: 3.992 and 3.667 and 3.67 (2×) and 3.796 and 3.836 and 3.683 and 3.652
TR-FRET signal at compound concentration 62.6401 nM (compound concentration 62.6401 nM, raw replicate titration data): 3.992 and 3.667 and 3.67 (2×) and 3.796 and 3.836 and 3.683 and 3.652 and 3.6831 and 3.54 and 3.542 and 3.62 and 3.792 and 3.69 and 3.855 and 3.914 and 3.849 and 3.7896
TR-FRET signal at compound concentration 62.6401 nM (compound concentration 62.6401 nM, raw titration data): 3.992 and 3.667 and 3.67 (2×) and 3.796 and 3.836 and 3.683 and 3.652 and 3.6831 and 3.54 and 3.542 and 3.62 and 3.792 and 3.69 and 3.855 and 3.914 and 3.849 and 3.7896
TR-FRET signal at compound concentration [5]: 3.992 and 3.667 and 3.67 (2×) and 3.796 and 3.836 and 3.683 and 3.652
TR-FRET signal, individual replicate [6]: 4.095 and 3.873 and 3.877 and 4.034 and 3.962 and 3.842 and 3.836 and 3.935
TR-FRET signal at compound concentration 125.28 nM (compound concentration 125.28 nM, raw replicate titration data): 4.095 and 3.873 and 3.877 and 4.034 and 3.962 and 3.842 and 3.836 and 3.935 and 3.986 and 3.722 and 3.719 and 3.7404 and 3.636 and 3.869 and 4.026 and 4.013 and 4.003 and 3.8874
TR-FRET signal at compound concentration 125.28 nM (compound concentration 125.28 nM, raw titration data): 4.095 and 3.873 and 3.877 and 4.034 and 3.962 and 3.842 and 3.836 and 3.935 and 3.986 and 3.722 and 3.719 and 3.7404 and 3.636 and 3.869 and 4.026 and 4.013 and 4.003 and 3.8874
TR-FRET signal at compound concentration [6]: 4.095 and 3.873 and 3.877 and 4.034 and 3.962 and 3.842 and 3.836 and 3.935
TR-FRET signal, individual replicate [7]: 4.223 and 4.06 and 4.046 and 4.132 and 4.096 and 3.922 and 3.897 and 4.118
TR-FRET signal at compound concentration 244.8 nM (compound concentration 244.8 nM, raw replicate titration data): 4.223 and 4.06 and 4.046 and 4.132 and 4.096 and 3.922 and 3.897 and 4.118 and 4.095 and 3.806 and 3.805 and 3.852 and 3.955 and 3.967 and 4.129 and 4.013 and 4.0726 and 3.918
TR-FRET signal at compound concentration 244.8 nM (compound concentration 244.8 nM, raw titration data): 4.223 and 4.06 and 4.046 and 4.132 and 4.096 and 3.922 and 3.897 and 4.118 and 4.095 and 3.806 and 3.805 and 3.852 and 3.955 and 3.967 and 4.129 and 4.013 and 4.0726 and 3.918
TR-FRET signal at compound concentration [7]: 4.223 and 4.06 and 4.046 and 4.132 and 4.096 and 3.922 and 3.897 and 4.118
TR-FRET signal, individual replicate [8]: 4.301 and 4.232 and 4.095 and 4.244 and 4.268 and 3.98 and 3.937 and 4.179
TR-FRET signal at compound concentration 993.601 nM (compound concentration 993.601 nM, raw replicate titration data): 4.301 and 4.232 and 4.095 and 4.244 and 4.268 and 3.98 and 3.937 and 4.179 and 4.188 and 3.896 and 3.831 and 3.928 and 4.083 and 4.021 and 4.231 and 4.144 and 3.981
TR-FRET signal at compound concentration 993.601 nM (compound concentration 993.601 nM, raw titration data): 4.301 and 4.232 and 4.095 and 4.244 and 4.268 and 3.98 and 3.937 and 4.179 and 4.188 and 3.896 and 3.831 and 3.928 and 4.083 and 4.021 and 4.231 and 4.144 and 3.981
TR-FRET signal at compound concentration [8]: 4.301 and 4.232 and 4.095 and 4.244 and 4.268 and 3.98 and 3.937 and 4.179
